# Test results published in US20020091262A1, “Substituted aryl or heteroarylamides having retinoid-like biological activity” (Allergan, priority 1995, published 2002).
# pKd: −log10 of the molar value.
# Target: T1, RARα (Homo sapiens, UniProt P10276)
# T1 construct: made in house; used as extract protein
# T1 sequence (P10276 1-462): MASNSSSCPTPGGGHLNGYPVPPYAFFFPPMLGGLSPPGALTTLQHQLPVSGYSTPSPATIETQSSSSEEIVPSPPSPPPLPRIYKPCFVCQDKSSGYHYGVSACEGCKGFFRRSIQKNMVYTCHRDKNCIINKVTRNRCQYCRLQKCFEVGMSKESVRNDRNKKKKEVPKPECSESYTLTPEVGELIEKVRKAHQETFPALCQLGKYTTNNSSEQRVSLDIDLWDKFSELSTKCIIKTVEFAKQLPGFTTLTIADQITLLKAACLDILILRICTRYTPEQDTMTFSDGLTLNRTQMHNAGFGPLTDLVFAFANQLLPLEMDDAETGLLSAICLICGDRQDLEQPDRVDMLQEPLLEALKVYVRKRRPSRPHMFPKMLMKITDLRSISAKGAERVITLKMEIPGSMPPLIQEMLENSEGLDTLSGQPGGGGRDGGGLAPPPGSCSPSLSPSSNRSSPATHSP
# Test: Ligand binding assay, RARα
# Settings: receptor expressed in Baculovirus; [3H] all-trans retinoic acid; Cheng-Prussof from IC50
# Experimental: (§1) A holoreceptor transactivation assay and a ligand binding assay which measure the ability of the compounds of the invention to bind to the several retinoid receptor subtypes, respectively, are described in published PCT Application No. WO W093/11755 (particularly on pages 30-33 and 37-41) published on Jun. 24, 1993, the specification of which is also incorporated herein by reference. A description of the ligand binding assay is also provided below.
# (§2) All binding assays were performed in a similar fashion. All six receptor types were derived from the expressed receptor type (RAR α, β, Γ and RXR α, β, Γ) expressed in Baculovirus. Stock solutions of all compounds were prepared as 10 mM ethanol solutions and serial dilutions carried out into 1:1 DMSO; ethanol. Assay buffers consisted of the following for all six receptor assays: 8% glycerol, 120 mM KCl, 8 mM Tris, 5 mM CHAPS 4 mM DTT and 0.24 mM PMSF, pH-7.4@room temperature.
# (§3) All receptor biding assays were performed in the same manner. The final assay volume was 250 μl and contained from 10-40 μg of extract protein depending on receptor being assayed along with 5 nM of [^3H] all-trans retinoic acid or 10 nM [^3H] 9-cis retinoic acid and varying concentrations of competing ligand at concentrations that ranged from 0-10^−5 M. The assays were formatted for a 96 well minitube system. Incubations were carried out at 4° C. until equilibrium was achieved. Non-specific binding was defined as that binding remaining in the presence of 1000 nM of the appropriate unlabeled retinoic acid isomer. At the end of the incubation period, 50 μl of 6.25% hydroxyapitite was added in the appropriate wash buffer. The wash buffer consisted of 100 mM KCl, 10 mM Tris and either 5 mM CHAPS (RXR α, β, Γ) or 0.5% Triton X-100 (RAR α, β, Γ). The mixture was vortexed and incubated for 10 minutes at 4° C., centrifuged and the supernatant removed. The hydroxyapitite was washed three more times with the appropriate wash buffer. The receptor-ligand complex was adsorbed by the hydroxyapitite. The amount of receptor-ligand complex was determined by liquid scintillation counting of hydroxyapitite pellet.
# (§4) After correcting for non-specific binding, IC50 values were determined. […] The IC50 value was determined graphically from a loglogit plot of the data. The […] were determined by application of the Cheng-Prussof equation to the IC50 values, the labeled ligand concentration and the Kd of the labeled ligand.
# (§5) The results of ligand binding assay are expressed in Kd numbers. (See Chena et al. Biochemical Pharmacology Vol. 22 pp 3099-3108, expressly incorporated herein by reference.)
row,Compound,pKd
1,CC(C)(C)c1cc(C(=O)Nc2cc(F)c(C(=O)O)c(F)c2)cc(C(C)(C)C)c1 [Compound 12],7.06
2,CC(C)(C)c1cc(C(=O)Nc2ccc(C(=O)O)c([N+](=O)[O-])c2)cc(C(C)(C)C)n1 [Compound 14],7.03
3,"CC(C)(C)c1cc(C(=O)Nc2ccc(C(=O)O)cc2)cc(C(C)(C)C)c1 [Compound 15, reference compound]",7.43

# Target: T2, RARβ (Homo sapiens, UniProt P10826)
# T2 construct: made in house; used as extract protein
# T2 sequence (P10826 1-455): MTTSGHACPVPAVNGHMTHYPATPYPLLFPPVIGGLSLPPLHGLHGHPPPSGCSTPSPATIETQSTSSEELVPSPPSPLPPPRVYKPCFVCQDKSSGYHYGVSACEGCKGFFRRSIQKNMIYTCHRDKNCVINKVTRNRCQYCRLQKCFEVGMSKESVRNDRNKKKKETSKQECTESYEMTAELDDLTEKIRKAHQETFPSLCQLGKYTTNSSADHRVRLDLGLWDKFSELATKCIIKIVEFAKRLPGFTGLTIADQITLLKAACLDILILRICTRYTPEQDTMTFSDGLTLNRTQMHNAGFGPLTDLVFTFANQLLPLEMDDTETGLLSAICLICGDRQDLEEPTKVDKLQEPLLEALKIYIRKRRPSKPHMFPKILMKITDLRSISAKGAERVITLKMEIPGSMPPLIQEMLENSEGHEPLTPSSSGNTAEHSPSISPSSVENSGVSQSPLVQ
# Test: Ligand binding assay, RARβ
# Settings: receptor expressed in Baculovirus; Cheng-Prussof from IC50
# Experimental: as §1, §2
# as §3, with “The wash buffer consisted of 100 mM KCl, 10 mM Tris and either 5 mM CHAPS (RXR α, β, Γ) or 0.5% Triton X-100 (RAR α, β, Γ). The mixture was vortexed and incubated for 10 minutes at 4° C., centrifuged and the supernatant removed. The hydroxyapitite was washed three more times with the appropriate wash buffer. The receptor-ligand complex was adsorbed by the hydroxyapitite.” left out
# as §4, with “ligand. […]” for “ligand.”
row,Compound,pKd
1,"CC(C)(C)c1cc(C(=O)Nc2ccc(C(=O)O)cc2)cc(C(C)(C)C)c1 [Compound 15, reference compound]",< 6.00

# Target: T3, RARΓ (Homo sapiens, UniProt P13631)
# T3 construct: made in house; used as extract protein
# T3 sequence (P13631 1-454): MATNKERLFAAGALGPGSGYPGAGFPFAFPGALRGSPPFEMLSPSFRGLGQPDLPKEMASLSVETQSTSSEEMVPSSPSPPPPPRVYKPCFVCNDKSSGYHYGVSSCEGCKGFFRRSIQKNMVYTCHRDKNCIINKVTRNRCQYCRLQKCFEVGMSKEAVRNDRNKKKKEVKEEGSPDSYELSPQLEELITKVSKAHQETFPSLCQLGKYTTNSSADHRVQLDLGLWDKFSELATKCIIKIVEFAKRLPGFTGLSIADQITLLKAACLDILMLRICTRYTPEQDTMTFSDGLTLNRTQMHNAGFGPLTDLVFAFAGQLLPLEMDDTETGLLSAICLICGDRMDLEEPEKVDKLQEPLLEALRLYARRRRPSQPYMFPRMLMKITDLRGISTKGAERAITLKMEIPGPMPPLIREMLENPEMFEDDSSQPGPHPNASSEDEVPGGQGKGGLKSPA
# Test: Ligand binding assay, RARΓ
# Settings: receptor expressed in Baculovirus; Cheng-Prussof from IC50
# Experimental: as §1, §2
# as §3, with “The wash buffer consisted of 100 mM KCl, 10 mM Tris and either 5 mM CHAPS (RXR α, β, Γ) or 0.5% Triton X-100 (RAR α, β, Γ). The mixture was vortexed and incubated for 10 minutes at 4° C., centrifuged and the supernatant removed. The hydroxyapitite was washed three more times with the appropriate wash buffer. The receptor-ligand complex was adsorbed by the hydroxyapitite.” left out
# as §4, with “ligand. […]” for “ligand.”
row,Compound,pKd
1,"CC(C)(C)c1cc(C(=O)Nc2ccc(C(=O)O)cc2)cc(C(C)(C)C)c1 [Compound 15, reference compound]",< 6.00

# Target: T4, RXRα (Homo sapiens, UniProt P19793)
# T4 construct: made in house; used as extract protein
# T4 sequence (P19793 1-462): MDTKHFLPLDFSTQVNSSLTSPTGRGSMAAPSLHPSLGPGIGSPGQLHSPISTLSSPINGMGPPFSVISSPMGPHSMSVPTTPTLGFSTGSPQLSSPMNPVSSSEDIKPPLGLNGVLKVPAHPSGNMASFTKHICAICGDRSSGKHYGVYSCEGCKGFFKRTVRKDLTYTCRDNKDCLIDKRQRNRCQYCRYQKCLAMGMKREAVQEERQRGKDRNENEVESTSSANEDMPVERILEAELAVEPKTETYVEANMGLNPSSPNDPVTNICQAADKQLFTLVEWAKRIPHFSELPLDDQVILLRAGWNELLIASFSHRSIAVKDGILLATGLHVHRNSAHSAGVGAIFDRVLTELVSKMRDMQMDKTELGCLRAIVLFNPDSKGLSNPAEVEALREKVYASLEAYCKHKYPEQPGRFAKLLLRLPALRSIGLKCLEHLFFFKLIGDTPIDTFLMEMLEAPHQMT
# Test: Ligand binding assay, RXRα
# Settings: receptor expressed in Baculovirus; Cheng-Prussof from IC50
# Experimental: as §1, §2, §3, §4, §5
row,Compound,pKd
1,"2-Fluoro-4-[(3′,5′-di-t-butyl)phenylcarbamoyl]benzoic Acid [Compound 6]",< 6.00
2,"CC(C)(C)c1cc(C(=O)Nc2ccc(C(=O)O)cc2)cc(C(C)(C)C)c1 [Compound 15, reference compound]",< 6.00

# Target: T5, RXRβ (UniProt P28704)
# T5 construct: All six receptor types were derived from the expressed receptor type (RAR α, β, Γ and RXR α, β, Γ) expressed in Baculovirus
# T5 sequence (P28704 1-520): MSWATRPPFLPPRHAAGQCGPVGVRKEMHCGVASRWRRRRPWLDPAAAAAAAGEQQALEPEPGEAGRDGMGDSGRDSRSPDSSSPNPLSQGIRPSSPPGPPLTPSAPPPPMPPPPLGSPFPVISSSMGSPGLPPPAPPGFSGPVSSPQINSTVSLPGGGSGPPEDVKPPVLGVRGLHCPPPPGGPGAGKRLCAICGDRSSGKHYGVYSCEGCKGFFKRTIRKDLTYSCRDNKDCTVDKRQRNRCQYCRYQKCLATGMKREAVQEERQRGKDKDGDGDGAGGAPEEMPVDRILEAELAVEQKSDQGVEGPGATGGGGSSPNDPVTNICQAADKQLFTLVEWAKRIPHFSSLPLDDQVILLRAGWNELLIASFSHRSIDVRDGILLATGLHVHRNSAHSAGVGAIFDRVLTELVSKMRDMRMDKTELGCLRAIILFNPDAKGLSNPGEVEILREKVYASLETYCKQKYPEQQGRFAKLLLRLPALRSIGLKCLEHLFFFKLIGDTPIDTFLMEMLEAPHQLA
# Test: Ligand binding assay, RXRβ
# Settings: receptor expressed in Baculovirus; Cheng-Prussof from IC50
# Experimental: (§6) A description of the ligand binding assay is also provided below.
# as §2
# as §3, with “At the end of the incubation period, 50 μl of 6.25% hydroxyapitite was added in the appropriate wash buffer.” left out
# as §4
# (§7) The results of ligand binding assay are expressed in Kd numbers.
row,Compound,pKd
1,"2-Fluoro-4-[(3′,5′-di-t-butyl)phenylcarbamoyl]benzoic Acid [Compound 6]",< 6.00
2,CC(C)(C)c1cc(C(=O)Nc2cc(F)c(C(=O)O)c(F)c2)cc(C(C)(C)C)c1 [Compound 12],< 6.00
3,CC(C)(C)c1cc(C(=O)Nc2ccc(C(=O)O)c([N+](=O)[O-])c2)cc(C(C)(C)C)n1 [Compound 14],< 6.00
4,"CC(C)(C)c1cc(C(=O)Nc2ccc(C(=O)O)cc2)cc(C(C)(C)C)c1 [Compound 15, reference compound]",< 6.00

# Target: T6, RXRΓ (UniProt P28705)
# T6 construct: All six receptor types were derived from the expressed receptor type (RAR α, β, Γ and RXR α, β, Γ) expressed in Baculovirus
# T6 sequence (P28705 1-463): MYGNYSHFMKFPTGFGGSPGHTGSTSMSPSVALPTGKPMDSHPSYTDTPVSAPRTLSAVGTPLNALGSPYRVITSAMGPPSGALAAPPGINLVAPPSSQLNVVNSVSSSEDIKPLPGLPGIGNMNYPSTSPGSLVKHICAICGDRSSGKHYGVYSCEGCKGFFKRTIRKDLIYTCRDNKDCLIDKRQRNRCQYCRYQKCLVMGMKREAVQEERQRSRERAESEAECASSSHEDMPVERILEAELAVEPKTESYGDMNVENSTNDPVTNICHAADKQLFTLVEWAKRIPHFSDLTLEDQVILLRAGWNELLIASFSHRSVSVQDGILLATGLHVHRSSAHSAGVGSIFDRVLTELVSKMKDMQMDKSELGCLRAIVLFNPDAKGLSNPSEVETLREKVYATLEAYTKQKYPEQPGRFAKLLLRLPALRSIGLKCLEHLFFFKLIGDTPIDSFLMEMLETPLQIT
# Test: Ligand binding assay, RXRΓ
# Settings: receptor expressed in Baculovirus; Cheng-Prussof from IC50
# Experimental: as §6, §2
# as §3, with “At the end of the incubation period, 50 μl of 6.25% hydroxyapitite was added in the appropriate wash buffer.” left out
# as §4, §7
row,Compound,pKd
1,"2-Fluoro-4-[(3′,5′-di-t-butyl)phenylcarbamoyl]benzoic Acid [Compound 6]",< 6.00
2,CC(C)(C)c1cc(C(=O)Nc2cc(F)c(C(=O)O)c(F)c2)cc(C(C)(C)C)c1 [Compound 12],< 6.00
3,CC(C)(C)c1cc(C(=O)Nc2ccc(C(=O)O)c([N+](=O)[O-])c2)cc(C(C)(C)C)n1 [Compound 14],< 6.00
4,"CC(C)(C)c1cc(C(=O)Nc2ccc(C(=O)O)cc2)cc(C(C)(C)C)c1 [Compound 15, reference compound]",< 6.00
